9 compounds from patent publication US11964990B2, “1,3,4,7-tetrahydro-2H-pyrrolo[3′,2′:5,6]pyrido[2,3-b][1,4]oxazepine bcl-2 inhibitors” (AbbVie Inc., priority 2022, dated 2024) can be followed below.

What is called EC50 is the concentration that produces a half-maximal response. A word on the Ki: it is the equilibrium dissociation constant of an inhibitor or competing ligand from its target. Read a high Ki as weaker binding.

One test concerns RS4;11 cells. In words: Cell viability assay (CellTiter-Glo) in RS4;11 cell line. The conditions noted are these: 24 hours, 10% Human Serum, 50% decrease in cell viability. Format: cell-based. In outline:
(§1)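 RS4;11 or Molt-4 cells (3000 per well) in RPMI 1640 with 10% human serum treated with compound for 24 h, 5% CO2. Viability measured by CellTiter-Glo as percent of control; EC50 from sigmoidal dose-response curves.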
For orientation: ATP-based viability assays read luminescence as a measure of living cells.

A further test has as its system Molt-4 cells. Briefly: Cell viability counter screen assay (CellTiter-Glo) in Molt-4 cells. Format: cell-based. The following applies: 24 hours, 10% Human Serum, 50% decrease in cell viability. Summed up: as §1
For orientation: A counterscreen serves to expose hits that act by an unwanted route or on another target.

The target in a further test is Bcl-2 protein (Homo sapiens (Human), UniProt P10415). Briefly: TR-FRET binding assay, Bcl-2 (F-Bak peptide probe). The conditions noted are these: Bak BH3 peptide probe, Wang's equation. The procedure: (§2) Determination of the utility of compounds having Formula (I) or Formula (II) as binders to and inhibitors of anti-apoptotic Bcl-2 proteins was performed using the Time Resolved-Fluorescence Resonance Energy Transfer (TR-FRET) Assay. Tb-anti-GST antibody was purchased from Invitrogen (Catalog No. PV4216).
Chain of Bcl-2 protein (P10415 other isoform, or with tags, fused parts or gaps): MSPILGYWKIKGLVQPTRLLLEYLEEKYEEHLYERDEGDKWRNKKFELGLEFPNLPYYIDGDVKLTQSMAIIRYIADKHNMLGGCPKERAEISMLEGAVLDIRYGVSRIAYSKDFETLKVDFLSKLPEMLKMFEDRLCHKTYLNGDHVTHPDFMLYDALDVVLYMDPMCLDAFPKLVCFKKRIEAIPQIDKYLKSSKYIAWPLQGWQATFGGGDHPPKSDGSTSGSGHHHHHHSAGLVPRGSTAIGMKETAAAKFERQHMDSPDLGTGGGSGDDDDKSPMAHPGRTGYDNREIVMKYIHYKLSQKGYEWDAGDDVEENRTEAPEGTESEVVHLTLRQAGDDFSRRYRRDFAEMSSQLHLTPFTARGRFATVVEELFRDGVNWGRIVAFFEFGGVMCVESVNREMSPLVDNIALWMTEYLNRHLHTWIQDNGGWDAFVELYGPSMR
A Bcl-2 human encoding sequence was cloned into a pET41A vector (Novagen). The protein was expressed with E. coli. BL21(DE3)-T1R strain in OETB autoinduction medium at 30° C. for 25 hours. The cell pellets were resuspended in lysis buffer (50 mM Tris, 140 mM NaCl, 1 mM DTT, 10% Glycerol, 2 mM MgCl2, pH 7.3) and lysed with Microfluidizer. The Bcl-2 protein in clarified cell-lysate was purified with affinity chromatography (GST and Ni-NTA). The eluate was loaded onto a Superdex 75 column and further purified with a Q Sepharose column. The protein was purified on a phenyl hydrophobic interaction column and dialyzed in the storage buffer (50 mM Tris, 50 mM NaCl, 2 mM DTT, pH 7.5) and stored at −80° C.
(§3) […] of a protein (Bcl-2 or Bcl-xL)/probe/antibody mixture pre-equilibrated for one hour in assay buffer was added to each well at final concentrations listed in Table 6 below.
(§4) The samples were then mixed on a shaker for 1 minute and equilibrated for an additional 3 hours at room temperature. For each assay plate, a probe/antibody and protein/antibody/probe mixture were included as a negative and a positive control, respectively. Fluorescence was measured on the Envision (Perkin Elmer) using a 340/35 nm excitation filter and 520/525 (F-Bak) and 495/510 nm (Tb-labeled anti-GST antibody) emission filters. Inhibition constants (Ki) were determined using Wang's equation (Wang FEBS Lett. 1995, 360, 111-114). The TR-FRET assay can be performed in the presence of varying concentrations of human serum (HS) to determine apparent half maximal inhibitory concentration (IC50) after HS protein binding.
(§5) Inhibition constants were determined using Wang's equation (Wang FEBS Lett. 1995, 360:111-4).
For orientation: Time-resolved FRET reads energy transfer from a long-lived donor to a nearby acceptor.

Another test addresses Bcl-xL protein (Homo sapiens (Human), UniProt Q07817). Briefly: TR-FRET binding assay, Bcl-xL (F-Bak peptide probe). The conditions noted are these: Bak BH3 peptide probe, Wang's equation. The procedure: as §2
A human Bcl-xL encoding sequence was cloned into a pET41A vector. The protein was expressed with E. coli. BL21(DE3)-T1R strain in OETB autoinduction medium at 30° C. for 25 hours. The cell pellets were resuspended in lysis buffer (50 mM Tris, 140 mM NaCl, 1 mM DTT, 10% Glycerol, 0.1% Triton X-100, pH 7.5) and lysed with Microfluidizer. The Bcl-xL protein in clarified cell-lysate was purified with GST affinity chromatography. The eluate was dialyzed in the storage buffer (1×PBS, 10% Glycerol, 2 mM DTT, 1 mM Sodium Azide, pH 7.4) and stored at −80° C.
as §3, §4, §5

Chain of Bcl-xL protein (Q07817 other isoform, or with tags, fused parts or gaps): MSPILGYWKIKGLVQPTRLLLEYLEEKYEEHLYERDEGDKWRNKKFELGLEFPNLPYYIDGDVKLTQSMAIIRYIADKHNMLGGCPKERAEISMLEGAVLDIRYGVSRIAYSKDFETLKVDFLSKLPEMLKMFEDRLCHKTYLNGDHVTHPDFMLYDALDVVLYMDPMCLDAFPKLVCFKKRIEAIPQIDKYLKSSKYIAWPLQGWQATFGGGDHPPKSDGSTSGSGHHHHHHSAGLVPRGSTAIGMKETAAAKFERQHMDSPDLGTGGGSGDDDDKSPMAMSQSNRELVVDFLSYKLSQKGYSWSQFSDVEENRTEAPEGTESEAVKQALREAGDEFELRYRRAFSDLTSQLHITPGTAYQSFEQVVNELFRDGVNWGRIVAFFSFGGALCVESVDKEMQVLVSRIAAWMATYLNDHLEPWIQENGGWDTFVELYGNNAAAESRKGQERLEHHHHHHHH

Regarding `CC1(C)CC(c2ccc(Cl)cc2)=C2CN3CCN(c4ccc(C(=O)NS(=O)(=O)c5ccc(OC[C@H]6CC[C@H](N7CCOCC7)CC6)c(Cl)c5)c(N5CCCOc6nc7[nH]ccc7cc65)c4)C[C@H]3COCCCO[C@@H]2C1` [Example 38, N-((3-chloro-4-(((1r,4r)-4-morpholinocyclohexyl)methoxy)phenyl)sulfonyl)-4-((4aS,10aR)-14-(4-chlorophenyl)-12,12-dimethyl-1,2,4a,5,8,9,10a,11,13,15-decahydro-7H,12H-benzo[f]pyrazino[2,1-c][1,8]dioxa[4]azacycloundecin-3(4H)-yl)-2-(3,4-dihydro-2H-pyrrolo[3′,2′:5,6]pyrido[2,3-b][1,4]oxazepin-1(7H)-yl)benzamide], the figures for the EC50 in the test with RS4;11 cells and in the test on Molt-4 cells were 26 nM and 2340 nM, respectively. In addition, the Ki on Bcl-2 protein stood at 0.108 nM; on Bcl-xL protein, 5.62 nM.

For the compound `CC1(C)CC(c2ccc(Cl)cc2)=C2CN3CCN(c4ccc(C(=O)NS(=O)(=O)c5cnc(OC[C@H]6CC[C@](C)(O)CC6)c(Cl)c5)c(N5CCCOc6nc7[nH]ccc7cc65)c4)C[C@H]3COCCCO[C@@H]2C1` [Example 42, N-((5-chloro-6-(((1r,4r)-4-hydroxy-4-methylcyclohexyl)methoxy)pyridin-3-yl)sulfonyl)-4-((4aS,10aR)-14-(4-chlorophenyl)-12,12-dimethyl-1,2,4a,5,8,9,10a,11,13,15-decahydro-7H,12H-benzo[f]pyrazino[2,1-c][1,8]dioxa[4]azacycloundecin-3(4H)-yl)-2-(3,4-dihydro-2H-pyrrolo[3′,2′:5,6]pyrido[2,3-h][1,4]oxazepin-1(7H)-yl)benzamide], the EC50 was 11.3 nM with RS4;11 cells and above 10000 nM in the test on Molt-4 cells. The Ki worked out at 0.159 nM at Bcl-2 protein and 25.1 nM at Bcl-xL protein.

With `CC1(C)CC(c2ccc(Cl)cc2)=C2CN3CCN(c4ccc(C(=O)NS(=O)(=O)c5ccc(OC[C@H]6CC[C@](C)(O)CC6)c(Cl)c5)c(N5CCCOc6nc7[nH]ccc7cc65)c4)C[C@H]3COCCCO[C@@H]2C1` [Example 43, N-((3-chloro-4-(((1r,4r)-4-hydroxy-4-methylcyclohexyl)methoxy)phenyl)sulfonyl)-4-((4aS,10aR)-14-(4-chlorophenyl)-12,12-dimethyl-1,2,4a,5,8,9,10a,11,13,15-decahydro-7H,12H-benzo[f]pyrazino[2,1-c][1,8]dioxa[4]azacycloundecin-3(4H)-yl)-2-(3,4-dihydro-2H-pyrrolo[3′,2′:5,6]pyrido[2,3-b][1,4]oxazepin-1(7H)-yl)benzamide], the values for the EC50 in the test with RS4;11 cells and with Molt-4 cells were 17.7 nM and above 10000 nM, respectively. The Ki on Bcl-2 protein amounted to 0.0853 nM; at Bcl-xL protein, 29.7 nM.

In the case of `CC1(C)CC(c2ccc(Cl)cc2)=C2CN3CCN(c4ccc(C(=O)NS(=O)(=O)c5ccc(OC[C@H]6CC[C@](C)(O)CC6)c([N+](=O)[O-])c5)c(N5CCCOc6nc7[nH]ccc7cc65)c4)C[C@H]3COCCCO[C@@H]2C1` [Example 44, 4-((4aS,10aR)-14-(4-chlorophenyl)-12,12-dimethyl-1,2,4a,5,8,9,10a,11,13,15-decahydro-7H,12H-benzo[f]pyrazino[2,1-c][1,8]dioxa[4]azacycloundecin-3(4H)-yl)-2-(3,4-dihydro-2H-pyrrolo[3′,2′:5,6]pyrido[2,3-b][1,4]oxazepin-1(7H)-yl)-N-((4-(((1r,4r)-4-hydroxy-4-methylcyclohexyl)methoxy)-3-nitrophenyl)sulfonyl)benzamide], the results for the EC50 in the test on RS4;11 cells and in the test with Molt-4 cells were 4.39 nM and 2270 nM, respectively. The Ki turned out to be 0.0898 nM on Bcl-2 protein and 7.98 nM at Bcl-xL protein.

Turning to `CC1(C)CC(c2ccc(Cl)cc2)=C2CN3CCN(c4ccc(C(=O)NS(=O)(=O)c5ccc(NCC6CCCCO6)c([N+](=O)[O-])c5)c(N5CCCOc6nc7[nH]ccc7cc65)c4)C[C@H]3COCCCO[C@@H]2C1` (stereo partly drawn) [Example 45, 4-((4aS,10aR)-14-(4-chlorophenyl)-12,12-dimethyl-1,2,4a,5,8,9,10a,11,13,15-decahydro-7H,12H-benzo[f]pyrazino[2,1-c][1,8]dioxa[4]azacycloundecin-3(4H)-yl)-2-(3,4-dihydro-2H-pyrrolo[3′,2′:5,6]pyrido[2,3-b][1,4]oxazepin-1(7H)-yl)-N-((3-nitro-4-(((tetrahydro-2H-pyran-2-yl)methyl)amino)phenyl)sulfonyl)benzamide], the EC50 was 10.7 nM in the test with RS4;11 cells and above 10000 nM with Molt-4 cells. Besides, the figures for the Ki on Bcl-2 protein and at Bcl-xL protein were 0.238 nM and 27.8 nM, respectively.

Consider `COC[C@]1(F)C[C@H](CNc2ccc(S(=O)(=O)NC(=O)c3ccc(N4CCN5CC6=C(c7ccc(Cl)cc7)CC(C)(C)C[C@H]6OCCCOC[C@@H]5C4)cc3N3CCCOc4nc5[nH]ccc5cc43)cc2[N+](=O)[O-])C1` [Example 47, 4-((4aS,10aR)-14-(4-chlorophenyl)-12,12-dimethyl-1,2,4a,5,8,9,10a,11,13,15-decahydro-7H,12H-benzo[f]pyrazino[2,1-c][1,8]dioxa[4]azacycloundecin-3(4H)-yl)-2-(3,4-dihydro-2H-pyrrolo[3′,2′:5,6]pyrido[2,3-b][1,4]oxazepin-1(7H)-yl)-N-((4-((((1r,3r)-3-fluoro-3-(methoxymethyl)cyclobutyl)methyl)amino)-3-nitrophenyl)sulfonyl)benzamide], for which the EC50 in the test with RS4;11 cells was 10.9 nM; in the test with Molt-4 cells, above 10000 nM. Also, the values for the Ki at Bcl-2 protein and on Bcl-xL protein were 0.28 nM and 25.8 nM, respectively.

Take `CO[C@]1(CF)C[C@@H](CNc2ccc(S(=O)(=O)NC(=O)c3ccc(N4CCN5CC6=C(c7ccc(Cl)cc7)CC(C)(C)C[C@H]6OCCCOC[C@@H]5C4)cc3N3CCCOc4nc5[nH]ccc5cc43)cc2[N+](=O)[O-])C1` [Example 48, 4-((4aS,10aR)-14-(4-chlorophenyl)-12,12-dimethyl-1,2,4a,5,8,9,10a,11,13,15-decahydro-7H,12H-benzo[f]pyrazino[2,1-c][1,8]dioxa[4]azacycloundecin-3(4H)-yl)-2-(3,4-dihydro-2H-pyrrolo[3′,2′:5,6]pyrido[2,3-b][1,4]oxazepin-1(7H)-yl)-N-((4-((((1r,3r)-3-(fluoromethyl)-3-methoxycyclobutyl)methyl)amino)-3-nitrophenyl)sulfonyl)benzamide]: the EC50 in the test with RS4;11 cells is 18.1 nM; with Molt-4 cells, 5840 nM. Besides, the results for the Ki on Bcl-2 protein and on Bcl-xL protein were 0.206 nM and 28.6 nM, respectively.

Turning to `CC1(C)CC(c2ccc(Cl)cc2)=C2CN3CCN(c4ccc(C(=O)NS(=O)(=O)c5cnc(OC[C@H]6CC[C@@](C)(O)CC6)c(Cl)c5)c(N5CCCOc6nc7[nH]ccc7cc65)c4)C[C@H]3COCCCO[C@@H]2C1` [Example 50, N-((5-chloro-6-(((1s,4s)-4-hydroxy-4-methylcyclohexyl)methoxy)pyridin-3-yl)sulfonyl)-4-((4aS,10aR)-14-(4-chlorophenyl)-12,12-dimethyl-1,2,4a,5,8,9,10a,11,13,15-decahydro-7H,12H-benzo[f]pyrazino[2,1-c][1,8]dioxa[4]azacycloundecin-3(4H)-yl)-2-(3,4-dihydro-2H-pyrrolo[3′,2′:5,6]pyrido[2,3-b][1,4]oxazepin-1(7H)-yl)benzamide], the EC50 was 41.9 nM in the test with RS4;11 cells and above 10000 nM in the test on Molt-4 cells. Moreover, the Ki on Bcl-2 protein stood at 0.237 nM; at Bcl-xL protein it was 39.7 nM.

With `CO[C@@H]1CC[C@@H](COc2ccc(S(=O)(=O)NC(=O)c3ccc(N4CCN5CC6=C(c7ccc(Cl)cc7)CC(C)(C)C[C@H]6OCCCOC[C@@H]5C4)cc3N3CCCOc4nc5[nH]ccc5cc43)cc2[N+](=O)[O-])OC1` [Example 51], the EC50 in the test on RS4;11 cells is 9.6 nM; with Molt-4 cells, above 10000 nM. Besides, the values for the Ki on Bcl-2 protein and on Bcl-xL protein were 0.1 nM and 18.9 nM, respectively.
